Reference: patent publication US11459323B2, “Monocyclic β-lactam compound for treating bacterial infection” (MEDSHINE DISCOVERY INC., priority 2018, dated 2022)
Values after ≈ are worked out from the molar mass of the structure shown. Like-named read-outs stand apart in the source and are kept apart here.

How the values were obtained:
Assay in all cases: MIC on clinically isolated bacteria
Type in all cases: cell-based
[1] = tested on: Pseudomonas aeruginosa C763
From the text: (§1) Twenty-five strains of clinically isolated Acinetobacter baumannii and twenty-seven strains of Pseudomonas aeruginosa were respectively selected and used to determine the minimum inhibitory concentration (MIC) of the compounds by micro-liquid dilution method according to the Institute of Clinical and Laboratory Standard (CLSI) requirements.

[2] = tested on: Acinetobacter baumannii C281
From the text: as §1

[3] = tested on: Pseudomonas aeruginosa C755
From the text: as §1

[4] = tested on: Acinetobacter baumannii C181
From the text: as §1

[5] = tested on: Acinetobacter baumannii C395
From the text: as §1

[6] = tested on: Pseudomonas aeruginosa W46
From the text: as §1

[7] = tested on: Acinetobacter baumannii C401
From the text: as §1

[8] = tested on: Pseudomonas aeruginosa W32
From the text: as §1

[9] = tested on: Pseudomonas aeruginosa C762
From the text: as §1

[10] = tested on: Pseudomonas aeruginosa C745
From the text: as §1

[11] = tested on: Acinetobacter baumannii C390
From the text: as §1

[12] = tested on: Acinetobacter baumannii C313
From the text: as §1

[13] = tested on: Pseudomonas aeruginosa W4
From the text: as §1

[14] = tested on: Pseudomonas aeruginosa W19
From the text: as §1

[15] = tested on: Acinetobacter baumannii C283
From the text: as §1

[16] = tested on: Acinetobacter baumannii C357
From the text: as §1

[17] = tested on: Acinetobacter baumannii C241
From the text: as §1

[18] = tested on: Acinetobacter baumannii C427
From the text: as §1

[19] = tested on: Acinetobacter baumannii C279
From the text: as §1

[20] = tested on: Acinetobacter baumannii C328
From the text: as §1

[21] = tested on: Acinetobacter baumannii C402
From the text: as §1

[22] = tested on: Pseudomonas aeruginosa W35
From the text: as §1

[23] = tested on: Pseudomonas aeruginosa C761
From the text: as §1

[24] = tested on: Pseudomonas aeruginosa M1
From the text: as §1

[25] = tested on: Acinetobacter baumannii C408
From the text: as §1

[26] = tested on: Pseudomonas aeruginosa W20
From the text: as §1

[27] = tested on: Pseudomonas aeruginosa W1
From the text: as §1

[28] = tested on: Acinetobacter baumannii C333
From the text: as §1

[29] = tested on: Pseudomonas aeruginosa W23
From the text: as §1

[30] = tested on: Acinetobacter baumannii C319
From the text: as §1

[31] = tested on: Pseudomonas aeruginosa W21
From the text: as §1

[32] = tested on: Acinetobacter baumannii C270
From the text: as §1

[33] = tested on: Pseudomonas aeruginosa C754
From the text: as §1

[34] = tested on: Pseudomonas aeruginosa W13
From the text: as §1

[35] = tested on: Acinetobacter baumannii C394
From the text: as §1

[36] = tested on: Pseudomonas aeruginosa W9
From the text: as §1

[37] = tested on: Acinetobacter baumannii C332
From the text: as §1

Aeruginosa ATCC27853 = conditions: Pseudomonas aeruginosa
From the text: as §1

[38] = tested on: Acinetobacter baumannii C251
From the text: as §1

[39] = tested on: Acinetobacter baumannii C361
From the text: as §1

## CC1(C)[C@H](NC(=O)/C(=N\O[C@@H](COc2ccc3c(c2)CN(/C(=N\[C@@H]2CCCNC2)N[C@@H]2CCCNC2)C3)C(=O)O)c2csc(N)n2)C(=O)N1OS(=O)(=O)O [Compound 46]
[1]; read-out: MIC
  MIC: 4 µg/mL (≈ 5.04 µM)
[2]; Acinetobacter baumannii C281, read-out: Minimum Inhibitory Concentration (MIC)
  MIC: 4 µg/mL (≈ 5.04 µM)
[3]; read-out: MIC
  MIC: 0.5 µg/mL (≈ 0.631 µM)
[4]; Acinetobacter baumannii C181, read-out: Minimum Inhibitory Concentration (MIC)
  MIC: 4 µg/mL (≈ 5.04 µM)
[5]; Acinetobacter baumannii C395, read-out: Minimum Inhibitory Concentration (MIC)
  MIC: 4 µg/mL (≈ 5.04 µM)
[6]; read-out: MIC
  MIC: 0.5 µg/mL (≈ 0.631 µM)
[7]; Acinetobacter baumannii C401, read-out: Minimum Inhibitory Concentration (MIC)
  MIC: 4 µg/mL (≈ 5.04 µM)
[8]; read-out: MIC
  MIC: 1 µg/mL (≈ 1.26 µM)
[9]; read-out: MIC
  MIC: 8 µg/mL (≈ 10.1 µM)
[10]; read-out: MIC
  MIC: 4 µg/mL (≈ 5.04 µM)
[11]; Acinetobacter baumannii C390, read-out: Minimum Inhibitory Concentration (MIC)
  MIC: 4 µg/mL (≈ 5.04 µM)
[12]; Acinetobacter baumannii C313, read-out: Minimum Inhibitory Concentration (MIC)
  MIC: 4 µg/mL (≈ 5.04 µM)
[13]; read-out: MIC
  MIC: 1 µg/mL (≈ 1.26 µM)
[14]; read-out: MIC
  MIC: 0.5 µg/mL (≈ 0.631 µM)
[15]; Acinetobacter baumannii C283, read-out: Minimum Inhibitory Concentration (MIC)
  MIC: 4 µg/mL (≈ 5.04 µM)
[16]; Acinetobacter baumannii C357, read-out: Minimum Inhibitory Concentration (MIC)
  MIC: 4 µg/mL (≈ 5.04 µM)
[17]; Acinetobacter baumannii C241, read-out: Minimum Inhibitory Concentration (MIC)
  MIC: 4 µg/mL (≈ 5.04 µM)
[18]; Acinetobacter baumannii C427, read-out: Minimum Inhibitory Concentration (MIC)
  MIC: 4 µg/mL (≈ 5.04 µM)
[19]; Acinetobacter baumannii C279, read-out: Minimum Inhibitory Concentration (MIC)
  MIC: 4 µg/mL (≈ 5.04 µM)
[20]; Acinetobacter baumannii C328, read-out: Minimum Inhibitory Concentration (MIC)
  MIC: 4 µg/mL (≈ 5.04 µM)
[21]; Acinetobacter baumannii C402, read-out: Minimum Inhibitory Concentration (MIC)
  MIC: 4 µg/mL (≈ 5.04 µM)
[22]; read-out: MIC
  MIC: 0.25 µg/mL (≈ 0.315 µM)
[23]; read-out: MIC
  MIC: 0.25 µg/mL (≈ 0.315 µM)
[24]; read-out: MIC
  MIC: 1 µg/mL (≈ 1.26 µM)
[25]; Acinetobacter baumannii C408, read-out: Minimum Inhibitory Concentration (MIC)
  MIC: 4 µg/mL (≈ 5.04 µM)
[26]; read-out: MIC
  MIC: 1 µg/mL (≈ 1.26 µM)
[27]; read-out: MIC
  MIC: 1 µg/mL (≈ 1.26 µM)
[28]; Acinetobacter baumannii C333, read-out: Minimum Inhibitory Concentration (MIC)
  MIC: 4 µg/mL (≈ 5.04 µM)
[29]; read-out: MIC
  MIC: 0.25 µg/mL (≈ 0.315 µM)
[30]; Acinetobacter baumannii C319, read-out: Minimum Inhibitory Concentration (MIC)
  MIC: 4 µg/mL (≈ 5.04 µM)
[31]; read-out: MIC
  MIC: 0.25 µg/mL (≈ 0.315 µM)
[32]; Acinetobacter baumannii C270, read-out: Minimum Inhibitory Concentration (MIC)
  MIC: 4 µg/mL (≈ 5.04 µM)
[33]; read-out: MIC
  MIC: 0.5 µg/mL (≈ 0.631 µM)
[34]; read-out: MIC
  MIC: 0.25 µg/mL (≈ 0.315 µM)
[35]; Acinetobacter baumannii C394, read-out: Minimum Inhibitory Concentration (MIC)
  MIC: 4 µg/mL (≈ 5.04 µM)
[36]; read-out: MIC
  MIC: 1 µg/mL (≈ 1.26 µM)
[37]; Acinetobacter baumannii C332, read-out: Minimum Inhibitory Concentration (MIC)
  MIC: 4 µg/mL (≈ 5.04 µM)
Aeruginosa ATCC27853; Aeruginosa ATCC27853, read-out: MIC
  MIC: 0.5 µg/mL (≈ 0.631 µM)
[38]; Acinetobacter baumannii C251, read-out: Minimum Inhibitory Concentration (MIC)
  MIC: > 16 µg/mL
[39]; Acinetobacter baumannii C361, read-out: Minimum Inhibitory Concentration (MIC)
  MIC: 4 µg/mL (≈ 5.04 µM)

## CN(C)c1cc(NC(=O)CNC(C)(C)C)c(O)c2c1C[C@H]1C[C@H]3[C@H](N(C)C)C(O)=C(C(N)=O)C(=O)[C@@]3(O)C(O)=C1C2=O [Tigecycline, reference compound]
[1]
  MIC: > 16 µg/mL
[2]; Acinetobacter baumannii, C281, read-out: Minimum Inhibitory Concentration (MIC)
  MIC: 1 µg/mL (≈ 1.71 µM)
[3]
  MIC: 4 µg/mL (≈ 6.83 µM)
[4]; Acinetobacter baumannii, C181, read-out: Minimum Inhibitory Concentration (MIC)
  MIC: 1 µg/mL (≈ 1.71 µM)
[5]; Acinetobacter baumannii, C395, read-out: Minimum Inhibitory Concentration (MIC)
  MIC: 1 µg/mL (≈ 1.71 µM)
[6]
  MIC: 8 µg/mL (≈ 13.7 µM)
[7]; Acinetobacter baumannii, C401, read-out: Minimum Inhibitory Concentration (MIC)
  MIC: 1 µg/mL (≈ 1.71 µM)
[8]
  MIC: 16 µg/mL (≈ 27.3 µM)
[9]
  MIC: > 16 µg/mL
[10]
  MIC: > 16 µg/mL
[11]; Acinetobacter baumannii, C390, read-out: Minimum Inhibitory Concentration (MIC)
  MIC: 1 µg/mL (≈ 1.71 µM)
[12]; Acinetobacter baumannii, C313, read-out: Minimum Inhibitory Concentration (MIC)
  MIC: 1 µg/mL (≈ 1.71 µM)
[13]
  MIC: 8 µg/mL (≈ 13.7 µM)
[14]
  MIC: 8 µg/mL (≈ 13.7 µM)
[15]; Acinetobacter baumannii, C283, read-out: Minimum Inhibitory Concentration (MIC)
  MIC: 1 µg/mL (≈ 1.71 µM)
[16]; Acinetobacter baumannii, C357, read-out: Minimum Inhibitory Concentration (MIC)
  MIC: 1 µg/mL (≈ 1.71 µM)
[17]; Acinetobacter baumannii, C241, read-out: Minimum Inhibitory Concentration (MIC)
  MIC: 2 µg/mL (≈ 3.41 µM)
[18]; Acinetobacter baumannii, C427, read-out: Minimum Inhibitory Concentration (MIC)
  MIC: 1 µg/mL (≈ 1.71 µM)
[19]; Acinetobacter baumannii, C279, read-out: Minimum Inhibitory Concentration (MIC)
  MIC: 1 µg/mL (≈ 1.71 µM)
[20]; Acinetobacter baumannii, C328, read-out: Minimum Inhibitory Concentration (MIC)
  MIC: 1 µg/mL (≈ 1.71 µM)
[21]; Acinetobacter baumannii, C402, read-out: Minimum Inhibitory Concentration (MIC)
  MIC: 1 µg/mL (≈ 1.71 µM)
[22]
  MIC: 8 µg/mL (≈ 13.7 µM)
[23]
  MIC: 16 µg/mL (≈ 27.3 µM)
[24]
  MIC: 16 µg/mL (≈ 27.3 µM)
[25]; Acinetobacter baumannii, C408, read-out: Minimum Inhibitory Concentration (MIC)
  MIC: 1 µg/mL (≈ 1.71 µM)
[26]
  MIC: 16 µg/mL (≈ 27.3 µM)
[27]
  MIC: 16 µg/mL (≈ 27.3 µM)
[28]; Acinetobacter baumannii, C333, read-out: Minimum Inhibitory Concentration (MIC)
  MIC: 1 µg/mL (≈ 1.71 µM)
[29]
  MIC: 16 µg/mL (≈ 27.3 µM)
[30]; Acinetobacter baumannii, C319, read-out: Minimum Inhibitory Concentration (MIC)
  MIC: 1 µg/mL (≈ 1.71 µM)
[31]
  MIC: 8 µg/mL (≈ 13.7 µM)
[32]; Acinetobacter baumannii, C270, read-out: Minimum Inhibitory Concentration (MIC)
  MIC: 1 µg/mL (≈ 1.71 µM)
[33]
  MIC: 8 µg/mL (≈ 13.7 µM)
[34]
  MIC: 8 µg/mL (≈ 13.7 µM)
[35]; Acinetobacter baumannii, C394, read-out: Minimum Inhibitory Concentration (MIC)
  MIC: 1 µg/mL (≈ 1.71 µM)
[36]
  MIC: 16 µg/mL (≈ 27.3 µM)
[37]; Acinetobacter baumannii, C332, read-out: Minimum Inhibitory Concentration (MIC)
  MIC: 1 µg/mL (≈ 1.71 µM)
Aeruginosa ATCC27853; ATCC27853
  MIC: 8 µg/mL (≈ 13.7 µM)
[38]; Acinetobacter baumannii, C251, read-out: Minimum Inhibitory Concentration (MIC)
  MIC: 8 µg/mL (≈ 13.7 µM)
[39]; Acinetobacter baumannii, C361, read-out: Minimum Inhibitory Concentration (MIC)
  MIC: 1 µg/mL (≈ 1.71 µM)
